In ChEMBL document CHEMBL1909046, “DrugMatrix in vitro pharmacology data” one finds IC50 and Ki data, which are given here for 15 molecules.

Assay [1] is described as follows: DRUGMATRIX: beta-Lactamase enzyme inhibition (substrate: Nitrocefin). Particulars: Not Active = under 50% inhibition at 10 µM. Further details: species or system Bacillus cereus.
In assay [2] the target is T1, 5-hydroxytryptamine receptor 2C (Homo sapiens, UniProt P28335).
T1 sequence (P28335 whole entry): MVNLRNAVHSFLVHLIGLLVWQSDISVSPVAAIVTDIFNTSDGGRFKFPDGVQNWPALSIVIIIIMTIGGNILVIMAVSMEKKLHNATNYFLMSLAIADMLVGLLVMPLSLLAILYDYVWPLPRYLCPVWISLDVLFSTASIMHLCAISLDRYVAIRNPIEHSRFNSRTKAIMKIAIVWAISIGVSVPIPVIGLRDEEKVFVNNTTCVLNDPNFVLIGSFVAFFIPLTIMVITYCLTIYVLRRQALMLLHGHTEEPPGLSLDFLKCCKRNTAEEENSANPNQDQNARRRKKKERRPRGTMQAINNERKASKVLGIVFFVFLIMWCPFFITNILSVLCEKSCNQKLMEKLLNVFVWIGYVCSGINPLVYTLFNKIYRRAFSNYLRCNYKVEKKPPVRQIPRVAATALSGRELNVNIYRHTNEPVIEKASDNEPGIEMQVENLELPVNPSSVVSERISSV
In words: DRUGMATRIX: Serotonin (5-Hydroxytryptamine) 5-HT2C radioligand binding (ligand: [3H] Mesulergine). In kind it is cell membranes, CHO-K1, Membrane. Particulars: cho-k1; Not Active = under 50% inhibition at 10 µM.

Assay [3] deals with 5-hydroxytryptamine receptor 6 (Homo sapiens, UniProt P50406). In kind it is cell membranes, HeLa, Membrane. To be noted: hela.
The target in assay [4] is T2, Vasoactive intestinal polypeptide receptor 1 (Homo sapiens, UniProt P32241). Further: in other assays of this panel Not Active means under 50% inhibition at 10 µM.
T2 sequence (P32241 whole entry): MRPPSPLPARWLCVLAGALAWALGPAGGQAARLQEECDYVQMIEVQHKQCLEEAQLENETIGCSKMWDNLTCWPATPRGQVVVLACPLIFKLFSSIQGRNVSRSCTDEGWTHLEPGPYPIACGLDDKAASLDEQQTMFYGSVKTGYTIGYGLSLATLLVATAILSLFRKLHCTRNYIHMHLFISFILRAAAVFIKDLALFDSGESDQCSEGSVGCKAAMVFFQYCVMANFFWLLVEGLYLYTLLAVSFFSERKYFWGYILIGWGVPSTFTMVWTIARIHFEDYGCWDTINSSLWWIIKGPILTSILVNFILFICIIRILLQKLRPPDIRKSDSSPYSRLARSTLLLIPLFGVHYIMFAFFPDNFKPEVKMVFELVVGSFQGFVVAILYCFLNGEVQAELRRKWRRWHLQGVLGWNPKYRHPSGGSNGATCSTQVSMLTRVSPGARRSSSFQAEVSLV
The format is cell membranes, Membrane. To be noted: ht-29.

The target of assay [5] is T3, Polyunsaturated fatty acid lipoxygenase ALOX15 (Oryctolagus cuniculus, UniProt P12530).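 Further: inhibition of 15-lipoxygenase enzyme activity measured with linoleic acid as the substrate; in other assays of this panel Not Active means under 50% inhibition at 10 µM.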
T3 sequence (P12530 whole entry): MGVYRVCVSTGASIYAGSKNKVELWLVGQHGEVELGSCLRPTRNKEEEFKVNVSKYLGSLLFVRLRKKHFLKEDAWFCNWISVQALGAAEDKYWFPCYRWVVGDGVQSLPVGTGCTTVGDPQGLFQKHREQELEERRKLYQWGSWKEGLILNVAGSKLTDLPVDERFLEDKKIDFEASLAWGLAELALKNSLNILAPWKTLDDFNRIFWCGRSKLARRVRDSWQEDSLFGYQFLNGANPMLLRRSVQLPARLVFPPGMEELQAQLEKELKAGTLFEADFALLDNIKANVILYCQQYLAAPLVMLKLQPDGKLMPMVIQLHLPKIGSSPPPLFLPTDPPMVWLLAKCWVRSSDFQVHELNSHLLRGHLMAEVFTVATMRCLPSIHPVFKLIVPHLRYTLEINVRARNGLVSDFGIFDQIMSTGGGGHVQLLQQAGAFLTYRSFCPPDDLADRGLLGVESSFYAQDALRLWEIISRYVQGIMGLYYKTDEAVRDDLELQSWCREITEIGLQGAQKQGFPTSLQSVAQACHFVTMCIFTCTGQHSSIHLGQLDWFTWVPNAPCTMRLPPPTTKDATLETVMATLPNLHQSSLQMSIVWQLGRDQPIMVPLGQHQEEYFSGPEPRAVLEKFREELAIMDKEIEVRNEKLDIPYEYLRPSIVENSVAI
In words: biochemical. In kind it is tissue-based, Reticulocytes.

Assay [6] addresses Platelet-activating factor receptor (Homo sapiens, UniProt P25105). In kind it is tissue-based.
The target of assay [7] is T4, Estrogen receptor (Homo sapiens, UniProt P03372). Further: in other assays of this panel Not Active means under 50% inhibition at 10 µM.
T4 sequence (P03372 whole entry): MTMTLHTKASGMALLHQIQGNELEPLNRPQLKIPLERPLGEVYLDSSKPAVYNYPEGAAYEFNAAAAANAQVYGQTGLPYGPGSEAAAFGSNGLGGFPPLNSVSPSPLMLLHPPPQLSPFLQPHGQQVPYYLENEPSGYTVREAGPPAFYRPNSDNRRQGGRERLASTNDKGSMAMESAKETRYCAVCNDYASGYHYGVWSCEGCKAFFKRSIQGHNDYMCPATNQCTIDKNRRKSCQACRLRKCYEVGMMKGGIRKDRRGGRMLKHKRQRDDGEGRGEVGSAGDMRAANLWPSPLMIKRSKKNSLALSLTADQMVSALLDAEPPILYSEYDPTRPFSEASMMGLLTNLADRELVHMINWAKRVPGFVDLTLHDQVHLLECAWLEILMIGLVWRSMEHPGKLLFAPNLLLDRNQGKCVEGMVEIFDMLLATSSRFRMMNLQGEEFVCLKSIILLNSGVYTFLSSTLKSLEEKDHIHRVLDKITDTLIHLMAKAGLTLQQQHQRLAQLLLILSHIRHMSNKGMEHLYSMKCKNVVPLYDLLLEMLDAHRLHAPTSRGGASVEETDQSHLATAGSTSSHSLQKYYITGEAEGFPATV
To be noted: sf9.

Each structure is given as a SMILES string.

5-hydroxytryptamine receptor 6, sequence (P50406 whole entry): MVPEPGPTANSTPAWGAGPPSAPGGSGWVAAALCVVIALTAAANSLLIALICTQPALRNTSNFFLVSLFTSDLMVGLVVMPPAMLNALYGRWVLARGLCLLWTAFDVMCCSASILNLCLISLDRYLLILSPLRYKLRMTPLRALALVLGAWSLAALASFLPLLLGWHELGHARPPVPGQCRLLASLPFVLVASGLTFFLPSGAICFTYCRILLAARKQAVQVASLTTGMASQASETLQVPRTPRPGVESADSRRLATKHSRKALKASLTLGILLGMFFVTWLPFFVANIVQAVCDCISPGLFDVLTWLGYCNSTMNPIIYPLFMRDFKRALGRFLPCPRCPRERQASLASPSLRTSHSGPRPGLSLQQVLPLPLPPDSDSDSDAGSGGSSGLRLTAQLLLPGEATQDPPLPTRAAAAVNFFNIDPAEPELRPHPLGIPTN
Platelet-activating factor receptor, sequence (P25105 whole entry): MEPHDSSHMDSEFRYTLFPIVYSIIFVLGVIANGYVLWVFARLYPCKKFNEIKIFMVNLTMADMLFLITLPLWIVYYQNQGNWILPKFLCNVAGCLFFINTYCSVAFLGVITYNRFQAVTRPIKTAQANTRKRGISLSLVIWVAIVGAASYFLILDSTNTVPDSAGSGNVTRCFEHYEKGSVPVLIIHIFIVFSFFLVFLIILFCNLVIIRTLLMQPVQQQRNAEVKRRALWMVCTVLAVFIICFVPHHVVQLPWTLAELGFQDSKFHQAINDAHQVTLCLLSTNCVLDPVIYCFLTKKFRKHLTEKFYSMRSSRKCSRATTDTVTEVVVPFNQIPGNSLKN

As for `O=NN(CCCl)C(=O)NCCCl` [CARMUSTINE], the IC50 entry in assay [1], in assay [2], in assay [3], in assay [4], in assay [5] (reticulocytes) and in assay [6] was “Not Active” each time. The half-inhibitory concentration (IC50) entry in assay [7] is listed as “Not Active”. Moreover, in assay [1], the Ki result is reported as “Not Active”.

Turning to `CC1=C(C(=O)O)N2C(=O)[C@@H](NC(=O)[C@H](N)c3ccccc3)[C@H]2SC1` [CEPHALEXIN ANHYDROUS], the IC50 entry in assay [1], in assay [2], in assay [3], in assay [4], in assay [5] (reticulocytes) and in assay [6] was “Not Active” throughout. Moreover, in assay [7], the concentration for half-maximal inhibition (IC50) entry is “Not Active”. The Ki result in assay [1] is “Not Active”.

Take `O=C(N[C@H](CO)[C@H](O)c1ccc([N+](=O)[O-])cc1)C(Cl)Cl` [CHLORAMPHENICOL]: the IC50 result in assay [1], in assay [2], in assay [3], in assay [4], in assay [5] (reticulocytes) and in assay [6] was “Not Active” each time. For the same molecule, the IC50 result in assay [7] is given as “Not Active”. The Ki result in assay [1] is reported as “Not Active”.

For `C=C1CC[C@H](O)C/C1=C/C=C1\CCC[C@]2(C)[C@@H]([C@H](C)CCCC(C)C)CC[C@@H]12` [CHOLECALCIFEROL], the IC50 result in assay [1], in assay [2], in assay [3], in assay [4], in assay [5] (reticulocytes) and in assay [6] was “Not Active” each time. In addition, the IC50 result in assay [7] is listed as “Not Active”. Moreover, the Ki result in assay [1] is recorded as “Not Active”.

Turning to `C[N+](C)(C)CCO.[Cl-]` [CHOLINE CHLORIDE], the IC50 result in assay [1], in assay [2], in assay [3], in assay [4], in assay [5] (reticulocytes) and in assay [6] was “Not Active” throughout. Also, the IC50 entry in assay [7] is given as “Not Active”. Moreover, the Ki result in assay [1] was “Not Active”.

As for `CCOC(=O)C(C)(C)Oc1ccc(Cl)cc1` [CLOFIBRATE], the IC50 entry in assay [1], in assay [2], in assay [3], in assay [4], in assay [5] (reticulocytes) and in assay [6] was “Not Active” each time. Besides, in assay [7], the half-maximal inhibitory concentration (IC50) result is reported as “Not Active”. For the same molecule, the Ki entry in assay [1] was “Not Active”.

In the case of `CC(=O)OCC(=O)[C@@]1(O)CC[C@H]2[C@@H]3CCC4=CC(=O)CC[C@]4(C)[C@H]3C(=O)C[C@@]21C` [CORTISONE ACETATE], the IC50 entry in assay [1], in assay [2], in assay [3], in assay [4], in assay [5] (reticulocytes) and in assay [6] was “Not Active” in each case. Moreover, in assay [7], the IC50 entry is on record as “Not Active”. In assay [1], the Ki entry is recorded as “Not Active”.

Take `O=c1ccc2ccccc2o1` [COUMARIN]: the concentration for half-maximal inhibition (IC50) result in assay [1], in assay [2], in assay [3], in assay [4], in assay [5] (reticulocytes) and in assay [6] was “Not Active” each time. Further, the IC50 entry in assay [7] is recorded as “Not Active”. Besides, in assay [1], the Ki entry is reported as “Not Active”.

`C/C=C/C[C@@H](C)[C@@H](O)[C@H]1C(=O)N[C@@H](CC)C(=O)N(C)CC(=O)N(C)[C@@H](CC(C)C)C(=O)N[C@@H](C(C)C)C(=O)N(C)[C@@H](CC(C)C)C(=O)N[C@@H](C)C(=O)N[C@H](C)C(=O)N(C)[C@@H](CC(C)C)C(=O)N(C)[C@@H](CC(C)C)C(=O)N(C)[C@@H](C(C)C)C(=O)N1C` [CYCLOSPORINE]: the IC50 entry in assay [1], in assay [2], in assay [3], in assay [4], in assay [5] (reticulocytes) and in assay [6] was “Not Active” each time. Besides, the IC50 result in assay [7] is “Not Active”. Also, in assay [1], the Ki entry is reported as “Not Active”.

In the case of `CN(C)/N=N/c1[nH]cnc1C(N)=O` [DACARBAZINE], the IC50 result in assay [1], in assay [2], in assay [3], in assay [4], in assay [5] (reticulocytes) and in assay [6] was “Not Active” each time. Further, the IC50 result in assay [7] is “Not Active”. Moreover, the Ki result in assay [1] is recorded as “Not Active”.

With `COc1ccc2c(c1)[C@]13CCCC[C@@H]1[C@H](C2)N(C)CC3` [DEXTROMETHORPHAN], the 50% inhibitory concentration (IC50) entry in assay [1], in assay [2], in assay [3], in assay [4], in assay [5] (reticulocytes) and in assay [6] was “Not Active” throughout. Moreover, the IC50 result in assay [7] is “Not Active”. The Ki result in assay [1] was “Not Active”.

In the case of `COP(=O)(OC)OC=C(Cl)Cl` [DICHLORVOS], the IC50 entry in assay [1], in assay [2], in assay [3], in assay [4], in assay [5] (reticulocytes) and in assay [6] was “Not Active” each time. Also, the half-maximal inhibitory concentration (IC50) result in assay [7] is given as “Not Active”. The Ki entry in assay [1] is listed as “Not Active”.

Turning to `O=C(O)Cc1ccccc1Nc1c(Cl)cccc1Cl` [DICLOFENAC], the IC50 entry in assay [1], in assay [2], in assay [3], in assay [4], in assay [5] (reticulocytes) and in assay [6] was “Not Active” in each case. For the same molecule, the IC50 result in assay [7] is listed as “Not Active”. In assay [1], the Ki entry is reported as “Not Active”.

On to `C[C@H]1O[C@@H](O[C@H]2[C@@H](O)C[C@H](O[C@H]3[C@@H](O)C[C@H](O[C@H]4CC[C@@]5(C)[C@H](CC[C@@H]6[C@@H]5CC[C@]5(C)[C@@H](C7=CC(=O)OC7)CC[C@]65O)C4)O[C@@H]3C)O[C@@H]2C)C[C@H](O)[C@@H]1O` [DIGITOXIN], for which the IC50 result in assay [1], in assay [2], in assay [3], in assay [4], in assay [5] (reticulocytes) and in assay [6] was “Not Active” in each case. In assay [7], the IC50 entry is “Not Active”. Besides, the Ki result in assay [1] is “Not Active”.

With `COc1cccc2c1C(=O)c1c(O)c3c(c(O)c1C2=O)C[C@@](O)(C(=O)CO)C[C@@H]3O[C@H]1C[C@H](N)[C@H](O)[C@H](C)O1` [DOXORUBICIN], the IC50 entry in assay [1] was “Not Active”; in assay [2] it was “Not Active”; in assay [3], “Not Active”; in assay [4] it was “Not Active”; in assay [5] (read-out: IC50), 13.6 µM; in assay [6], “Not Active”. In addition, the IC50 result in assay [7] was “Not Active”. In assay [1], the Ki entry is reported as “Not Active”.
